Laboratory results published in paper PMC9923724, “Half sandwich-type osmium, ruthenium, iridium and rhodium complexes with bidentate glycosyl heterocyclic ligands induce cytostasis in platinum-resistant ovarian cancer cells and bacteriostasis in Gram-positive multiresistant bacteria” (Frontiers in Chemistry, 2023).

Tests used:
Format in all cases: cell-based
[1] = test system: primary dermal fibroblasts; assay: SRB assay (48 h) on primary fibroblasts; details: primary human dermal fibroblasts
Experimental: 3 × 10^3 A2780 cells, 2 × 10^3 ID8 cells and 4 × 10^3 primary fibroblasts were plated to 96 well plates. Cells were treated with the compounds in the concentrations indicated for either 4 h for an MTT assay or for 48 h for an SRB assay. Data is represented as average ± SD, from three biological replicates; individual assays were performed in duplicates. Values were normalized for vehicle treated cells, absorbance for vehicle treated cells equals to 1. Statistical significance was assessed using two-way ANOVA test comparing the free ligand and each complex as a complex-ligand pair. Before the test normality was assessed using the D’Agostino-Pearson test. The ID8 SRB Ir-7+L-7 dataset had lognormal distribution. […] All other datasets had normal distribution. For better visibility the p values are presented in an excel sheet at https://figshare.com/s/2c942a812caea8869a67. Non-linear regression was performed on the A2780 SRB and the ID8 SRB datasets.
Human primary dermal fibroblasts were cultured in low glucose DMEM (1 g/L glucose) medium supplemented with 20% fetal calf serum, 2 mM glutamine, 1% penicillin-streptomycin.
The assay was performed similar to ([Kovács et al., 2019]). Cells were seeded in 96 well plates the day before the assay. Cells were treated with the compounds for 48 h. Cells were fixed with 10% trichloroacetic acid (TCA). Fixed cells were washed in distilled water 3 times followed by staining with SRB (0.4 m/V% dissolved in 1% acetic acid) for 10 min. Stained cells were washed in 1% acetic acid 5 times; acetic acid was removed and cells were left to dry. Protein-bound SRB was released by adding 100 µl 10 mM Tris base. Plates were measured in a plate photometer (Thermo Scientific Multiscan GO spectrophotometer, Waltham, MA, United States) at 540 nm. On each plate wells were designed to contain vehicle-treated cells. In calculations the readings for these wells was considered as 1 and all readings were expressed relative to these values.

[2] = test system: 4-hydroxynonenal (4HNE)-modified proteins in A2780 cells; assay: Western blot for 4HNE-modified proteins in A2780 cells; details: IC50 concentrations, 15 or 30 min, bands ∼70 kDa and ∼60 kDa
Experimental: FIGURE 9 (A) Vitamin E, a lipid soluble antioxidant blocks the cytostatic activity of the bioactive complexes. 1.5 × 10^3 A2780 cells were plated to 96 well plates. Cells were treated with the compounds in the concentrations indicated for 48 h followed by an SRB assay. Data is represented as average ± SD, from four biological replicates; individual assays were performed in duplicates. Values were normalized for vehicle treated cells, absorbance for vehicle treated cells equals to 1. Normality was checked using the D’Agostino-Pearson normality test. […] Statistical significance was assessed using two-way ANOVA test comparing all measurement points. * and *** represent statistical significance at p <0.05 and 0.001, respectively, between the lowest concentration and the higher concentrations among non-vitamin E-treated cells. ! and !!! represent statistical significance at p <0.05 and 0.001, respectively, between the lowest concentration and the higher concentrations among vitamin E-treated cells. #, ## and ### represent statistical significance at p <0.05, p <0.01 and 0.001, respectively, between the non-vitamin E-treated vs. vitamin E-treated cells. […] Cells were harvested and lysed. Cellular proteins were separated on a 10% SDS-PAGE gel and were blotted. […]
To complement the vitamin E experiments we assessed oxidative stress by detecting the formation of 4-hydroxynonenal (4HNE)-modified proteins, a hallmark of oxidative stress ([Ayala et al., 2014]; [Zhang and Forman, 2017]). […]
SDS-polyacrylamide gel electrophoresis and Western blot was performed as in ([Márton et al., 2018]) using an antibody against 4HNE (Abcam (ab46545) 1:1000) that was detected using a corresponding peroxidase-conjugated secondary antibody (1:10000, Cell Signaling Technology, Inc., Beverly, MA, United States). […] ECL and amido black pictures were captured using the ChemiDoc Touch Imaging System (Bio-Rad Laboratories, Inc., Hercules, California, United States) and the pictures were evaluated using the Image Lab software (Bio-Rad).

[3] = test system: A2780 cells; assay: Annexin V - propidium iodide double staining, flow cytometry; details: 2 h, complexes at their IC50 (Ru-7 0.846 μM, Os-7 0.578 µM, Ir-7 0.891 µM)
From the text: We verified the toxic effects of the active Ru, Os and Ir complexes by Annexin V-FITC propidium iodide (PI) double staining. The complexes were applied in concentrations corresponding to their respective IC50 values and we have not detected increases in the apoptotic (Annexin V positive population) or the necrotic (PI positive and Annexin V—PI double positive populations) as opposed to the hydrogen peroxide-treated cells used as positive control (Figure 6).
Cells were then stained with Annexin V and propidium iodide (PI) and cells were subjected to flow cytometry as described in Materials and Methods. The percent of cells in the quadrants are plotted. Data is represented as average ± SD, from three biological replicates, individual assays were performed in duplicates. Normal distribution was achieved by Box-Cox normalization of the data. Statistical significance was determined using a two-way ANOVA test, all measurement points were compared with each other. * indicate statistically significant differences between vehicle-treated (control) and treated cells (complexes or 300 µM H2O2) corresponding to the same quadrant (e.g., vehicle-treated double negative cells vs. H2O2-treated double negative cells) at p <0.05.
The proportions of dead cells was assessed using the Annexin V—propidium iodide assay and was measured using flow cytometry using BD FacsCalibur (BD Biosciences, Franklin Lakes, NJ, United States) instrument and the FITC Annexin V/Dead Cell Apoptosis kit (Life Technologies, Eugene, OR, United States) according to the manufacturer’s instructions similar to ([Bai et al., 2001]). Quadrants were set based on the FITC and PI values observed for the vehicle-treated cells. Ten thousand cells were measured and the percent in the quadrants was used for the subsequent calculation.

| Compound | Fibroblast SRB Max. (maximal inhibition) [1] [%] | 4HNE formation (4HNE-modified proteins) [2] | induction of cell death (apoptotic / necrotic populations) [3] |
| --- | --- | --- | --- |
| Cc1c(C)c(C)[c-](C)c1C.F[P-](F)(F)(F)(F)F.O=C(OCC1OC(n2cc(-c3ccc4ccccc4n3)nn2)C(OC(=O)c2ccccc2)C(OC(=O)c2ccccc2)C1OC(=O)c1ccccc1)c1ccccc1.[Cl][Ir+2] (mixture of isomers) [Ir-7] | 42.83 | gross induction of 4HNE formation | do not induce cell death |
| Cc1ccc(C(C)C)cc1.F[P-](F)(F)(F)(F)F.O=C(OCC1OC(n2cc(-c3ccc4ccccc4n3)nn2)C(OC(=O)c2ccccc2)C(OC(=O)c2ccccc2)C1OC(=O)c1ccccc1)c1ccccc1.[Cl][Os+] (mixture of isomers) [Os-7] | 48.94 | gross induction of 4HNE formation | do not induce cell death |
| Cc1ccc(C(C)C)cc1.F[P-](F)(F)(F)(F)F.O=C(OCC1OC(n2cc(-c3ccc4ccccc4n3)nn2)C(OC(=O)c2ccccc2)C(OC(=O)c2ccccc2)C1OC(=O)c1ccccc1)c1ccccc1.[Cl][Ru+] (mixture of isomers) [Ru-7] | 50.04 | gross induction of 4HNE formation | do not induce cell death |
